System: allergic reaction at the conjunctiva sites (vascular hyperpermeability) of Wistar rats
Experiment: Rat passive allergic conjunctivitis model, Evans blue dye leakage (absorbance at 620 nm)
Format: in vivo
Conditions: Example 2, FIG. 1, presence or absence of the component
Excerpt: As a trigger solution was used a solution prepared by mixing equal volumes of 1% (w/v) ovalbumin (Grade V; manufactured by Sigma-Aldrich Co. LLC)/physiological saline (manufactured by Otsuka Pharmaceutical Co., Ltd.) and 1% (w/v) Evans blue (manufactured by Wako Pure Chemical Industries, Ltd.)/physiological saline.
As an extraction solution was used an aqueous solution of acetone (manufactured by Wako Pure Chemical Industries, Ltd.)/0.5% (w/v) sodium sulfate (manufactured by Wako Pure Chemical Industries. Ltd.) (7:3).
After 48 h, 1 mL of the trigger solution was intravenously administered to trigger an allergic reaction at the conjunctiva sites. Then, each test solution was dropped onto the eyes at 15 min before and immediately before triggering the allergic reaction (the total of 2 times). […] The overnight extraction solution was centrifuged to recover a supernatant. Absorbance of the supernatant was measured at 620 nm.
Vascular hyperpermeability caused by an allergic reaction results in leakage of Evans blue. Thus, the less the amount of leakage of the dye, the more the vascular hyperpermeability is suppressed. This should be an indicator of the antiallergic effects. The amount of leakage of dye per tissue unit (gig/g) was calculated by using a predetermined standard curve. A dye amount ratio was calculated using the following equation to give an indicator of the suppression effects. […]

Question: Which “Contribution of the component to the antiallergic action when combined with ketotifen fumarate (group 6 compared with group 7, 8 or 10)” value does the source give for O=C([O-])O.[Na+] [sodium bicarbonate] here?
Answer: can contribute to an antiallergic action

Question: How did the “Contribution of the component to the antiallergic action when combined with ketotifen fumarate (group 6 compared with group 7, 8 or 10)” value turn out when [Cl-].[Na+] [sodium chloride] was run?
Answer: can contribute to an antiallergic action
